These results are taken from PubChem BioAssay AID463074 (Broad Institute, 2010).

Calls of active or inactive are those of the source.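 Rule for the calls: active = AC50 no more than tenfold above the top dose tested, or full inhibition at every dose with a flat fit (cut at about 19 µM in these data); inconclusive = flat curve fit with inhibition between 30% and 70%, or poor fit; inactive = AC50 more than tenfold above the top dose tested.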

For this test, the system named is HMLE_sh_eGFP viability, CellTiter-Glo luminescence, 72 h. As to the kind of experiment: cytotoxicity in HMLE control line with eGFP shRNA, dose response, counter-screen for HMLE_sh_ECad selective toxicity project, cell-based, HMLE_sh_eGFP, luminescence (AID 463074).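 Note: counterscreen control line to flag general toxicity for the HMLE_sh_ECad screen; potency for loss of viability as luminescence drops below DMSO wells.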
For the molecule `Cc1ccc(-c2csc3ncnc(NS(=O)(=O)c4ccc(Cl)cc4)c23)cc1`, the AC50 was 11.6 µM.

Consider `CCOC(=O)c1ccc(Nc2cc(C)nc(-c3ccccc3)n2)cc1`, for which the AC50 is 3.71 µM.

As to `COc1ccc2nc(C)cc(SCC(=O)N/N=C/c3cccc4ccccc34)c2c1`, the AC50 was 1.86 µM. The same measure for `COc1cc(/C=C2/CCC/C(=C\c3cc(O)c(OC)c(Cl)c3)C2=O)cc(Cl)c1O`: 0.768 µM; for `O=C(NC(c1ccc(Cl)cc1)c1c(O)ccc2ccccc12)c1ccccc1` (stereo not drawn): 2 µM. `O=C(CN1c2ccccc2Sc2ccccc21)NNC(=O)Nc1ccc(Cl)c(Cl)c1`: the AC50 is 3.46 µM. The figure for `CN(Cc1ccco1)c1ncnc2ccc(-c3ccc4c(ccn4C)c3)cc12` is 3.01 µM. Regarding `COC(=O)c1sc2nc(N3CCCCC3)c3c(c2c1N)CCCC3`, the AC50 is 4.94 µM.

`CC1CCN(c2nc(-c3cccnc3)nc3scc(-c4ccccc4)c23)CC1`: the AC50 was 1.48 µM. Consider `CC(C)c1ccc(N2C(=O)NC(=O)/C(=C\C=C\c3ccco3)C2=O)cc1`, for which the AC50 was > 19.5 µM (inactive). The figure for `O=c1c2ccccc2nc(COc2ccccc2)n1/N=C/c1cc([N+](=O)[O-])ccc1O` is > 19.5 µM (inactive); for `O=C(Nc1ccc2c(c1)OCO2)c1cc(-c2ccc(O)cc2)on1` it is 1.33 µM. For `COc1cc(F)c(C2=CC(=O)C[C@H](c3ccc(Cl)cc3)C2)cc1F`, the AC50 was 3.48 µM. The same measure for `CCOc1cccc(/C=N/NC(=O)c2cc(C3CC3)[nH]n2)c1O`: 5.72 µM; for `Cc1cccc(C)c1N=Nc1c(C)cc(O)cc1C`: 7.2 µM; for `CCN(CC)CCSc1nnc2c3ccccc3n(Cc3ccccc3)c2n1`: 2.47 µM. The same measure for `CCCCCCSc1cccc(-c2nc3ccccn3c2NCc2ccccc2)c1`: 5.27 µM; for `Cc1ccc(NS(=O)(=O)c2ccc(Cl)c(C(=O)Nc3ccccc3-c3nc4ccccc4[nH]3)c2)cc1C`: 1.48 µM. As to `O=C(Nc1ccccc1)Nc1cc(Cl)cc(Cl)c1`, the AC50 was 5.13 µM. The same measure for `FC(F)(F)c1cc(CCN2CCNC[C@@H]2Cc2ccccc2)cc(C(F)(F)F)c1`: 13.7 µM; for `Clc1ccc(Nc2ncnc3ccc(Br)cc23)cc1`: 17.5 µM; for `COc1cc(OC)c2cc(C(=O)N/N=C/c3cccc(OC)c3O)[nH]c2c1`: 6.08 µM. `CCN(CC)CCCNC(=S)N1CCN(c2nc(-c3ccc(F)cc3)cs2)CC1`: the AC50 is 2.44 µM. The figure for `Cc1cccc(-c2oc3ccccc3c2C#CCCO)c1` is 10.1 µM. The same measure for `COc1ccc(N/N=C(/C(C)=O)N2CCCc3ccccc32)cc1`: 13.2 µM; for `Cc1ccc(OCCN2CCN(c3nc(NCc4ccco4)c4ccccc4n3)CC2)cc1`: 4.66 µM; for `O=C(NC(=S)Nc1cccc(Cl)c1N1CCCCC1)c1cccs1`: 6.92 µM. The same measure for `Cc1cc(C(=O)NNc2ccc(F)cc2F)no1`: 1.6 µM. Regarding `CCN(CC)S(=O)(=O)c1cccc(NC(=O)Nc2cccc(C(F)(F)F)c2)c1`, the half-maximal activity concentration (AC50) was 3.56 µM.

With `O=c1c(Cl)c(NCc2ccccc2)cnn1C12CC3CC(CC(C3)C1)C2`, the AC50 is 3.19 µM. The same measure for `O=C(Cc1ccc(Cl)c(Cl)c1)Nc1ccc(SC(F)F)cc1`: 3.93 µM; for `CN(/N=C/c1cc(Cl)cc(Cl)c1O)C(=S)NC(C)(C)C`: 2.75 µM; for `O=C(Nc1cccc(-c2csc(Nc3cccc(C(F)(F)F)c3)n2)c1)c1ccccc1`: 3.42 µM. On to `Cc1cc(C)c2[nH]c(=O)c(CN(Cc3cccs3)C(=S)NCc3ccco3)cc2c1`, for which the AC50 was > 19.5 µM (inactive). The figure for `Cc1ccc(/C=N/NC(=O)CNC(=O)COc2ccccc2)o1` is > 19.5 µM (inactive); for `O=C(NC12CC3CC(CC(C3)C1)C2)c1ccc([N+](=O)[O-])o1` it is 7.04 µM. The figure for `O=[N+]([O-])c1ccc(S(=O)(=O)Nc2ccc(-c3csc(-c4ccccc4)n3)cc2)cc1` is 4.06 µM; for `O=C(N[C@H]1C/C=C\C[C@@H](CC(=O)N(CCO)Cc2ccccc2)C(=O)NC[C@H](c2ccccc2)OC1=O)OCC1c2ccccc2-c2ccccc21` it is 2.41 µM. The figure for `CCC1C=CC=CC[C@H](C)[C@@H](O)[C@](C)(O)C(=O)[C@@H](C)[C@H](O)[C@@H](C)C(=O)[C@H](C)[C@@H](O)[C@H](C)C=CC(=O)OC2[C@@H](C)C(CC1)OC1(CC[C@@H](C)C(C[C@H](C)O)O1)[C@@H]2C` (stereo partly drawn) is 3.2 µM; for `O=c1cc(C(F)(F)F)[nH]c2c(OC(F)(F)F)cccc12` it is > 19.5 µM (inactive); for `CC1=NN(c2nc(-c3ccc(F)cc3)cs2)C(=O)C1` it is 13.4 µM. For the molecule `COc1cc(OC)cc(C(=O)Nc2ccc(Nc3ccccc3)cc2)c1`, the AC50 is 7.41 µM. The figure for `Oc1nc(Nc2cccc(Cl)c2)sc1/C=C1\C=Nc2ccccc21` is 3.78 µM; for `Cn1ncc2c(Nc3cccc(Cl)c3)nc(Nc3cccc(Cl)c3)nc21` it is 3.71 µM; for `C/C(=C\c1ccc(C(=O)O)cc1)c1ccc2c(c1)C(C)(C)CCC2(C)C` it is 3.7 µM. For the molecule `CC(=O)Nc1ccc(-c2csc(NC(=O)CCCc3cccs3)n2)cc1`, the AC50 was 0.986 µM.

Regarding `CC1(C)CC[C@]2(CO)[C@@H](O)C[C@]3(C)C(=CCC4[C@@]5(C)CC[C@H](O)C(C)(C)C5CC[C@]43C)[C@@H]2C1` (stereo partly drawn), the AC50 is 4.35 µM.

As to `O=[N+]([O-])c1cc(C(F)(F)F)ccc1NCCNC(=S)Nc1ccc(Cl)cc1`, the AC50 was 5.24 µM.

Take `CCOc1cc2c(cc1OCC)-n1cccc1C(c1ccc(C(C)C)cc1)NC2` (stereo not drawn): the AC50 was 6.13 µM. The figure for `CCC(C)n1c(-c2cccs2)nc2nc3ccccc3nc21` (stereo not drawn) is 15.5 µM. The figure for `N#CC(C#N)=C(C#N)c1ccc(Nc2ccccc2)cc1` is 3.14 µM; for `COc1ccc2sc(-c3ccccc3OC)c(-c3ccc(O)cc3)c2c1` it is 6.71 µM; for `Cc1ccccc1N=C1SC(CC(=O)Nc2ccc3ccccc3c2)C(=O)N1Cc1ccccn1` (stereo not drawn) it is 6.02 µM. The same measure for `Oc1ccc(Nc2nc(-c3ccccc3O)nc3ccccc23)cc1`: 4.27 µM; for `Cc1ccc2c(c1)c1c(n2CC(O)CNC2CCCCC2)CCCC1` (stereo not drawn): 8.31 µM; for `COCCNc1cc(-c2ccccc2)nc2cc(-c3cccc(F)c3)nn12`: 13 µM. As to `CCn1c(=O)c(C(=O)NCc2ccccc2OC)c(O)c2ccccc21`, the concentration at half-maximal activity (AC50) was 17.4 µM. The figure for `CCN1CCN(c2ccc(NC(=O)CCc3c(C)nc4c(-c5ccc(F)cc5)c(C)nn4c3C)cc2)CC1` is 5.22 µM.

Take `COc1ccccc1NC(=O)c1c(Nc2ccccc2F)sc(C(=O)Nc2cccc(Cl)c2)c1N`: the AC50 was 2.95 µM.

For the molecule `COc1ccc(-c2nn(-c3ccccc3)cc2/C=N/N2C(=O)CSC2=S)cc1`, the AC50 was 3.97 µM. As to `NC1=NC[C@@H](CC2CCCCC2)N1CCc1cc(C(F)(F)F)cc(C(F)(F)F)c1`, the AC50 was 2.74 µM.

In the case of `CCCOc1ccc(/C=N/Nc2cccc([N+](=O)[O-])c2)c(O)c1`, the AC50 was 3.42 µM. As for `Nc1ccc2c(c1)Oc1ccccc1C=C2`, the AC50 is > 19.5 µM (inactive). The figure for `CCCn1c(=O)c(C(=O)NNS(=O)(=O)c2ccc(Cl)cc2)c(O)c2ccccc21` is 2.03 µM; for `Cc1noc(C)c1CSc1nc2ccccc2nc1NS(=O)(=O)c1ccc(Cl)cc1` it is 1.79 µM. The figure for `O=C1C(Cl)=C(Nc2ccccc2)C(=O)c2ccccc21` is 2.19 µM; for `COc1cc(Nc2ccc(C)cc2)c([N+](=O)[O-])nc1[N+](=O)[O-]` it is 5.74 µM. On to `NC(=O)CC(NC(=O)Cc1ccc(Br)cc1)c1ccc(N2CCN(c3ccccc3)CC2)c([N+](=O)[O-])c1` (stereo not drawn), for which the half-maximal activity concentration (AC50) is 17.6 µM. The same measure for `NC(=O)c1ccc(NC(=O)COC(=O)c2c3c(nc4ccccc24)/C(=C\c2cccs2)CCC3)cc1`: 10.3 µM; for `COc1ccc(CN2C(=O)c3cccnc3C2Nc2cc(Cl)ccc2OC)cc1` (stereo not drawn): > 19.5 µM (inactive).

Regarding `Cc1ccc(NC(=O)c2ccc(Cl)c(N3C(=O)C=CC3=O)c2)cc1`, the AC50 is 8.19 µM. In the case of `CCOC(=O)Nc1ccc(Cc2ccncc2)cc1`, the AC50 was > 19.5 µM (inactive).

As to `COc1ccc(C2=Nn3c(nnc3-c3ccccc3F)SC2)cc1OC1CCCC1`, the AC50 is 5.54 µM. As to `O=C(COc1ccc(-c2ccccc2)cc1)N/N=C/c1cc(O)ccc1Br`, the AC50 is 5.68 µM. As for `CCCC[C@@H](CN[C@H](C)CNC)NCC1CCC(C(C)(C)C)CC1` (stereo partly drawn), the concentration at half-maximal activity (AC50) was 6.37 µM. Consider `COc1ccc(/C=N/NC(=O)CCn2cnc(-c3ccccc3)c2-c2ccccc2)cc1OC`, for which the AC50 is 0.922 µM. Turning to `CCCCSc1nc(C)cc(SCC(=O)N/N=C/c2cccc(OC)c2O)n1`, the AC50 is 11.8 µM. The same measure for `COc1ccc(-c2sc3ccc(OC)cc3c2C#Cc2ccccn2)cc1`: 5.88 µM; for `Cc1ccc(NCc2ccc([N+](=O)[O-])s2)cc1`: > 19.5 µM (inactive). In the case of `Cc1ccc(NC(=O)/C=C/c2ccc3c(c2)OCO3)nc1`, the AC50 is 1.16 µM. `CC1CCN(S(=O)(=O)c2ccc3c(c2)C(=NO)c2cc(S(=O)(=O)N4CCC(C)CC4)ccc2-3)CC1`: the AC50 was 1.01 µM.

On to `CCc1cc2ccc(C)cc2nc1SCC(=O)c1ccc(NC(C)=O)cc1`, for which the AC50 is 9.7 µM.

For `O=C1C=C(c2cccs2)C[C@H](c2ccccc2)[C@H]1n1nnc([N+](=O)[O-])n1`, the AC50 is 0.274 µM.

Regarding `Oc1ccc(CCNc2ncnc3ccc(Cl)cc23)cc1`, the AC50 was 7.91 µM.

For the molecule `FC(F)(F)c1cccc(Nc2ncnc3ccccc23)c1`, the AC50 is 1.75 µM. Take `O=[N+]([O-])c1ccc(-c2nc(Nc3cccc(O)c3)c3ccccc3n2)cc1`: the AC50 is 3.89 µM.

As for `CN1CCN(c2ccc([N+](=O)[O-])c(NCc3ccco3)c2)CC1`, the AC50 was 12.9 µM. Regarding `Cc1ccc(-n2nc(C)c3c(C)c(CCC(=O)Nc4ccc(CN5CCCC5)cc4)c(C)nc32)cc1`, the AC50 is 3.79 µM. On to `COc1ccc(C(C)(C)C)cc1NC(=O)Nc1ccc2c(c1)OCO2`, for which the AC50 was 8.21 µM. The figure for `Cc1cccc(Nc2nc(-c3ccc(O)cc3O)cs2)n1` is 7.5 µM.

Consider `COc1cccc(-c2sc3ccccc3c2-c2ccc(OCCN3CCOCC3)cc2)c1`, for which the AC50 was 4.3 µM. The figure for `CC(O)CC(C(=O)NNc1ccccc1)C(=O)NNc1ccccc1` (stereo not drawn) is 1.87 µM; for `O=c1c2ccccc2nc2n1CCc1c-2[nH]c2ccccc12` it is > 19.5 µM (inactive).
